Experimental data reported in patent US20230080252A1, “ANTICANCER ADJUVANT AND PHARMACEUTICAL COMPOSITION FOR TREATING ANTICANCER-AGENT-RESISTANT CANCER, AND KIT COMPRISING SAME” (DONG-A UNIVERSITY RESEARCH FOUNDATION FOR INDUSTRY-ACADEMY …, priority 2020, published 2023).

Assays:
[1] = system: A549 (human lung carcinoma) cells; test: DNA fiber analysis of replication forks; type: cell-based; details: unperturbed A549 cells; IdU and CldU 20 min each; control 0.36 μm/min
Experimental: The ratios of CldU to IdU were calculated from active replication forks. […] Single-strand DNA (ssDNA; blue) was labelled with ssDNA-specific antibodies. Percentages of stalled forks were calculated by dividing the number of red-only tracts (stalled forks) by the total number of red-only plus red-green tracts (stalled and restarted forks, respectively). Analyses were performed on a minimum of 200 individual DNA fibers. […] The recovery of S phase progression is presented as a percentage of EdU positive cells at 6 h after the release from HU treatment. In each experiment, >100 cells were randomly chosen to determine the percentage of EdU-positive cells. […] The ratio of CldU to IdU in terms of length was calculated from active replication forks (red-green). […]
(1) ATR-CHK1 pathway accounts for the central replication stress responses and once activated it helps the cell to survive and faithfully complete DNA replication under stress. Having shown that TTP is found to be implicated in the ATR-CHK1 activation, as in Example 1 above, we decided to examine the effect of TTP on the replication fork stability using DNA fiber analysis, the clearest read-out of replication stress which relies on the incorporation of nucleotide analogues. […]
(3) We next examined the involvement of TTP in stalled fork protection. […] We then analyzed the relative shortening of CldU fiber as indicative of fork degradation. […]

[2] = system: p-CHK1 (ATR-CHK1 pathway); test: CHK1 phosphorylation (immunoblot / immunostaining) after UV or HU; type: cell-based, human; details: inhibitor added after UV irradiation, fixed after 2 hours, anti-p-CHK1 immunostaining
Excerpt: FIG. 1D is a quantification of the percentage of p-CHK1-positive cells from UV-treated data of FIG. 1C. […] In each experiment, >100 cells were randomly chosen to determine the percentage of p-CHK1-positive cells.
The two DNA damage response kinases ATR and ATM play key roles in the protection of genomic integrity from genotoxic stress by sensing a single-strand break and DSB (Double strand break), respectively. To identify the functions of TTP in the DNA damage response, we first analyzed the phosphorylation levels of CHK1 (p-CHK1) and CHK2 (p-CHK2) as readouts of ATR and ATM activity, respectively.
Then, we treated cells with HU, another CHK1 phosphorylation-triggering agent which depletes the deoxynucleoside triphosphate pool, thus inducing the RSR (Replication Stress Response).

siClaspin: siRNA (SEQ ID NO: 20) introduced into cells to make Claspin-deficient cells (AACCUUGCUUAGAGCUGAGUCUUCA; listed as RNA, chemistry not given here)
average fork velocity [1]: 0.22 μm/min

CNCc1ccc(-c2cc(-c3nc(-c4ccc(S(=O)(=O)C(C)C)cc4)cnc3N)on2)cc1 [VE-822]
residual p-CHK1 signal in TTP-deficient cells [2]: vanished
